Reference: patent publication US20240315991A1, “USES OF HNF4 ALPHA AGONISTS” (Sanford Burnham Prebys Medical Discovery Institute, priority 2023, published 2024)

What was measured:
[1] = system: VDAC1; assay: VDAC1 immunofluorescence of liver sections; type: in vivo, mouse; conditions: HFD+NCT vs HFD, FIGS. 3A-3C
Description: (§1) NCT oral administration. Four-week-old male C57BL/6J (JAX cat #000664) mice were purchased from Jackson laboratory and were maintained in a 12 h light/dark cycle throughout the experiment. Prior to the experiments, mice were acclimated for 2 weeks. Six-week-old mice with similar body weights were randomized to a normal diet (NC), a high fat diet (HFD) (Research Diets, cat #D12492 60 kcal % fat) or HFD containing 4000 ppm NCT (HFD+NCT) (Research Diets, 60 kcal % fat+4000 ppm NCT), which was calculated to provide approximately 400 mg/kg/d NCT. HFD chow containing NCT was made with gray dye to distinguish it from regular HFD chow that had green dye. Mice for each treatment group were placed in separate cages. Equal amounts of fresh chow were provided every week to all mice. Body weight gain and food intake were measured every week for 10 weeks. After 10 weeks of chow treatment, mice were sacrificed for analysis. […]
Immunofluorescence. […] Slides were mounted using fluorescence mounting medium and images were obtained at ×40 magnification using an Olympus IX71 fluorescence microscope. Fluorescence intensity of HNF4α-stained nuclei and VDAC stained mitochondria was calculated using MetaMorph TL software (version 7.6.5.0, Olympus). Fold change was calculated by normalizing to values from mice fed NC.

[2] = system: hepatic cytochrome C; assay: Western blotting of liver, cytochrome C; type: in vivo, mouse; conditions: HFD+NCT vs HFD, FIGS. 3D-3F
Description: (§2) NCT oral administration. Four-week-old male C57BL/6J (JAX cat #000664) mice were purchased from Jackson laboratory and were maintained in a 12 h light/dark cycle throughout the experiment. Prior to the experiments, mice were acclimated for 2 weeks. Six-week-old mice with similar body weights were randomized to a normal diet (NC), a high fat diet (HFD) (Research Diets, cat #D12492 60 kcal % fat) or HFD containing 4000 ppm NCT (HFD+NCT) (Research Diets, 60 kcal % fat+4000 ppm NCT), which was calculated to provide approximately 400 mg/kg/d NCT. HFD chow containing NCT was made with gray dye to distinguish it from regular HFD chow that had green dye. Mice for each treatment group were placed in separate cages. Equal amounts of fresh chow were provided every week to all mice. Body weight gain and food intake were measured every week for 10 weeks. After 10 weeks of chow treatment, mice were sacrificed for analysis. All animal experiments were approved by the Institutional Animal Care and Use Committee (IACUC) of the Sanford Burnham Prebys Medical Discovery Institute in accordance with national regulations. Sample size was chosen based on the prior study of NCT delivered by IP injection.
(§3) Western blotting. Mouse liver extracts were prepared by incubation in RIPA buffer (Invitrogen) containing protease inhibitors (Calbiochem, SanDiego, CA). Protein was quantified by BCA assay (Thermo Scientific). […]

[3] = system: SDHA; assay: Western blotting of liver, SDHA; type: in vivo, mouse; conditions: HFD+NCT vs HFD, FIGS. 3D-3F
Description: as §2, §3

[4] = system: DNA encoding the mitochondrial genes ND1; assay: Mitochondrial DNA analysis of liver, ND1; type: in vivo; conditions: mouse liver, HFD+NCT vs HFD, FIG. 3K
Description: as §2
(§4) Quantification of mtDNA was performed. […]

[5] = system: DNA encoding the mitochondrial genes 16s rRNA; assay: Mitochondrial DNA analysis of liver, 16s rRNA; type: in vivo; conditions: mouse liver, HFD+NCT vs HFD, FIG. 3L
Description: as §2, §4

[6] = system: HSP60 mRNA; assay: RT-PCR of mouse liver, HSP60; type: in vivo; conditions: HFD+NCT vs HFD, FIG. 3M
Description: as §1
(§5) RT-PCR. […] Quantitative real time PCR (RT-PCR) analysis was performed using SYBR® Select Master Mix (Applied Biosystems) and an ABI 7900HT thermal cycler (Applied Biosystems, Thermo Fisher Scientific). Ct values were normalized to 18s rRNA and are expressed as fold change over samples from mice fed NC or cultured human hepatocytes without NCT.

[7] = system: ILIβ mRNA; assay: RT-PCR of mouse liver, ILIβ; type: in vivo; conditions: HFD+NCT vs HFD, FIG. 5C
Description: as §1, §5

[8] = system: nitric oxide (NO); assay: Nitric oxide assay in mouse liver; type: in vivo; conditions: HFD+NCT vs HFD, FIG. 5G
Description: as §1
T6PNE cells were maintained in RPMI (5.5 mM glucose, Corning) supplemented with 10% fetal bovine serum (FBS, Sigma-Aldrich) and 1% penicillin-streptomycin (pen-strep, Gibco) in 5% CO2 at 37° C. […] NO was measured with the QuantiChrom Nitric Oxide Assay kit (D2NO-100, BioAssay Systems). […] Samples and standard from kit were incubated with reagents for 20 min at 60° C. and measured OD 540 nm.

[9] = system: T6PNE cells; assay: Nitric oxide assay in T6PNE cells treated with palmitate; type: cell-based; conditions: 0.12 mM palmitate plus 15 μM NCT, 3 days, FIG. 5H
Description: T6PNE cells were maintained in RPMI (5.5 mM glucose, Corning) supplemented with 10% fetal bovine serum (FBS, Sigma-Aldrich) and 1% penicillin-streptomycin (pen-strep, Gibco) in 5% CO2 at 37° C. Cells were treated with […] palmitate plus 0 or 15 μM NCT for 3 days in 10 cm plates and harvested with 500 μL PBS. For tissue specimens, snap frozen mouse liver was weighed and homogenized with PBS. NO was measured with the QuantiChrom Nitric Oxide Assay kit (D2NO-100, BioAssay Systems). Homogenized samples (150 μL) were processed for deproteination with 8 μL ZnSO4 and 8 μL NaOH. For normalization, an aliquot of samples from T6PNE cells was taken for BCA assay before deproteination. Samples and standard from kit were incubated with reagents for 20 min at 60° C. and measured OD 540 nm.
150 mM Palmitate (Sigma-Aldrich) was prepared in 50% ethanol and precomplexed with 15% fatty acid-free BSA (Research Organics, Cleveland, OH, USA) in a 37° C. water shaker. BSA-precomplexed palmitate was used as a 12 mM stock solution for all assays with a final concentration of 0.12 mM palmitate in cell culture medium.

[10] = cited from earlier work

Structure (SMILES): O=C(/C=C/c1ccc(O)c(O)c1)NCCc1ccc(O)cc1 [NCT, N-trans caffeoyltyramine]
- VDAC1 level in liver [1]: reverse the depression
- hepatic cytochrome C protein level [2]: reverse the depression
- SDHA protein level in liver [3]: reverse the depression
- level of DNA encoding the mitochondrial genes ND1 [4]: increase
- level of DNA encoding the mitochondrial genes 16s rRNA [5]: increase
- HSP60 mRNA level in liver [6]: reverse the induction
- expression level of ILIβ in mouse liver [7]: non-significant
- expression level of ILIβ in mouse liver ([7]; listed as Compound A): not affect
- level of NO in the livers of mice fed on HFD [8]: decrease
- level of NO in cultured cells treated with palmitate [9]: decrease
- oral bioavailability [10]: poor
